Experimental data as given in the NIST ThermoML archive (doi:10.1021/je050006+).

Tests used:
[1] = xn = mol fraction of the nth substance listed; conditions: 101.3 kPa, Liquid
[2] = excess molar enthalpy (molar enthalpy of mixing); xn = mol fraction of the nth substance listed; conditions: 101.3 kPa, Liquid

C=C1CCC2CC1C2(C)C (stereo not drawn) [β-pinene] + CCO
Conditions	excess molar enthalpy, [2] [kcal/mol]	mass density, [1] [kg/m3]	speed of sound, [1] [m/s]
283.15 K, x1 = 0.0507	–	807.27	1209.5
283.15 K, x1 = 0.071	0.0261	–	–
283.15 K, x1 = 0.1012	–	815.62	1222.5
283.15 K, x1 = 0.142	0.0492	–	–
283.15 K, x1 = 0.2046	–	829.52	1246.3
283.15 K, x1 = 0.269	0.0798	–	–
283.15 K, x1 = 0.3015	–	839.85	1265.4
283.15 K, x1 = 0.394	0.0997	–	–
283.15 K, x1 = 0.4042	–	848.66	1282.4
283.15 K, x1 = 0.496	0.109	–	–
283.15 K, x1 = 0.5145	–	856.44	1298.8
283.15 K, x1 = 0.599	0.117	–	–
283.15 K, x1 = 0.6019	–	861.6	1309.4
283.15 K, x1 = 0.689	0.117	–	–
283.15 K, x1 = 0.6981	–	866.52	1320.5
283.15 K, x1 = 0.773	0.115	–	–
283.15 K, x1 = 0.7932	–	870.77	1330.4
283.15 K, x1 = 0.864	0.105	–	–
283.15 K, x1 = 0.8762	–	874.13	1339.3
283.15 K, x1 = 0.93	0.0844	–	–
283.15 K, x1 = 0.9355	–	876.41	1345.8
283.15 K, x1 = 0.964	0.0664	–	–
283.15 K, x1 = 0.9799	–	878.19	1353.4
298.15 K, x1 = 0.0502	–	794.53	1156.2
298.15 K, x1 = 0.071	0.0349	–	–
298.15 K, x1 = 0.1022	–	803.02	1168.9
298.15 K, x1 = 0.142	0.0645	–	–
298.15 K, x1 = 0.1999	–	816.23	1189.9
298.15 K, x1 = 0.269	0.104	–	–
298.15 K, x1 = 0.3045	–	827.43	1209
298.15 K, x1 = 0.394	0.129	–	–
298.15 K, x1 = 0.4019	–	835.85	1224.1
298.15 K, x1 = 0.496	0.14	–	–
298.15 K, x1 = 0.5	–	842.91	1237.4
298.15 K, x1 = 0.599	0.145	–	–
298.15 K, x1 = 0.6017	–	849.06	1249.8
298.15 K, x1 = 0.689	0.145	–	–
298.15 K, x1 = 0.6999	–	854.18	1260.6
298.15 K, x1 = 0.7626	–	857.17	1264.9
298.15 K, x1 = 0.773	0.139	–	–
298.15 K, x1 = 0.864	0.122	–	–
298.15 K, x1 = 0.89	–	862.45	1280.4
298.15 K, x1 = 0.93	0.0932	–	–
298.15 K, x1 = 0.9415	–	864.49	1286.3
298.15 K, x1 = 0.964	0.0777	–	–
298.15 K, x1 = 0.98	–	866.07	1294.5
313.15 K, x1 = 0.052	–	782.17	1104.8
313.15 K, x1 = 0.071	0.0433	–	–
313.15 K, x1 = 0.1041	–	790.76	1116.6
313.15 K, x1 = 0.142	0.0813	–	–
313.15 K, x1 = 0.2043	–	804.04	1135.7
313.15 K, x1 = 0.269	0.135	–	–
313.15 K, x1 = 0.3029	–	814.57	1151.7
313.15 K, x1 = 0.394	0.171	–	–
313.15 K, x1 = 0.4046	–	823.44	1167
313.15 K, x1 = 0.496	0.19	–	–
313.15 K, x1 = 0.4981	–	830.17	1178.5
313.15 K, x1 = 0.599	0.2	–	–
313.15 K, x1 = 0.6014	–	836.54	1189.8
313.15 K, x1 = 0.689	0.199	–	–
313.15 K, x1 = 0.6979	–	841.7	1198.7
313.15 K, x1 = 0.773	0.191	–	–
313.15 K, x1 = 0.809	–	846.76	1207
313.15 K, x1 = 0.864	0.167	–	–
313.15 K, x1 = 0.8844	–	850.12	1213.6
313.15 K, x1 = 0.93	0.137	–	–
313.15 K, x1 = 0.9356	–	852.26	1221.9
313.15 K, x1 = 0.964	0.0944	–	–
313.15 K, x1 = 0.985	–	854.6	1228.9
